# Patent publication US20160310481A1, “LAQUINIMOD FOR TREATMENT OF CANNABINOID RECEPTOR TYPE 1(CB1) MEDIATED DISORDERS” (Teva Pharmaceutical Industries, Ltd., priority 2012, published 2016)
# Where two headings read alike, the source gives them in different places.
# Columns and labels:
# [1] = system: glutamatergic transmission in control striatal neurons; assay: Bath application on corticostriatal slices of wild type mice: sEPSCs (basal glutamatergic transmission); type: cell-based
# cannabinoid CB1 receptor = cannabinoid CB1 receptor (Mus musculus, UniProt P47746); conditions: HU210 1 μM
# Procedure: Recordings were performed between 25 and 35 dpi. Mice were killed by cervical dislocation under halothane anaesthesia, and corticostriatal coronal slices (200 μm) were prepared from fresh tissue blocks of the brain with the use of a vibratome (Centonze et al., 2007, 2009; Rossi et al., 2010a,b). A single slice was then transferred to a recording chamber and submerged in a continuously flowing artificial CSF (ACSF) (34° C., 2-3 ml/min) gassed with 95% O2-5% CO2. The composition of the control ACSF was (in mM): 126 NaCl, 2.5 KCl, 1.2 MgCl2, 1.2 NaH2PO4, 2.4 CaCl2, 11 Glucose, 25 NaHCO3. Recording pipettes were advanced towards individual striatal cells in the slice under positive pressure and visual control (WinVision 2000, Delta Sistemi, Italy) and, on contact, tight GΩ seals were made by applying negative pressure. The membrane patch was then ruptured by suction and membrane current and potential monitored using an Axopatch 1D patch clamp amplifier (Axon Instruments, Foster City, Calif., USA). Whole-cell access resistances measured in voltage clamp were in the range of 5-20 MΩ. Whole-cell patch clamp recordings were made with borosilicate glass pipettes (1.8 mm o.d.; 2-3 MΩ), in voltage-clamp mode, at the holding potential (HP) of −80 mV. […] Synaptic events were stored by using P-CLAMP (Axon Instruments) and analyzed off line on a personal computer with Mini Analysis 5.1 (Synaptosoft, Leonia, N.J., USA) software. […] Offline analysis was performed on spontaneous and miniature synaptic events recorded during fixed time epochs (3-5 min, 3-6 samplings), sampled every 5 or 10 minutes. […]
# For data presented as mean ±SE, n indicates the number of cells. One to six cells per animal were recorded. […] Multiple comparisons were analysed by one-way ANOVA followed by Tukey's HSD test. Comparisons between two groups were analysed by paired or unpaired Student's t-test. […]
# EAE mice = assay: EAE induction and disease evaluation, preventive daily s.c. LQ treatment; type: in vivo, C57BL/6 mice; conditions: preventive treatment 0-26 dpi, daily s.c. 1-25 mg/kg
# Procedure: Female C57BL/6 mice at 6-8 weeks of age were purchased from Charles River (Calco, Milan, Italy) and housed in pathogen-free conditions. All procedures involving animals were performed according to the guidelines of the San Raffaele Scientific Institute Institutional Animal Care and Use Committee.
# EAE was induced by immunization with 3 subcutaneous injection of 100 μl each, containing a total of 200 μg of myelin oligodendrocyte glycoprotein (MOG) peptide 35-55 (Multiple Peptide System) in incomplete Freund's adjuvant and 8 mg/ml of Mycobacterium tuberculosis (strain H37Ra; Difco). Pertussis toxin (Sigma) (500 ng) was injected on the day of the immunization and again two days later. Body weight and clinical score (0=healthy; 1=limp tail; 2=ataxia and/or paresis of hindlimbs; 3=paralysis of hindlimbs and/or paresis of forelimbs; 4=tetraparalysis; 5=moribund or death) were recorded daily.
# EAE mice were treated once daily by subcutaneous (s.c.) injection of LQ (supplied by Teva Pharmaceutical Industries, Netanya, Israel) (thereafter referred as LQ-EAE). LQ was administered at different doses (from 1 to 25 mg/kg) starting the same day of immunization up to 26 days post immunization (d.p.i.). Sham treated EAE mice (thereafter referred as untreated-EAE) and healthy control mice (thereafter referred as HC) were used as controls. […]
# [2] = system: GABAergic transmission in control striatal neurons; assay: Bath application on corticostriatal slices of wild type mice: sIPSCs (basal GABAergic transmission); type: cell-based
# rat model of ADHD = assay: Rat model of ADHD; type: in vivo; conditions: compared to control rats
# Procedure: Laqunimod is tested in a rat model of ADHD.
# [3] = system: striatal glutamatergic transmission; assay: Whole-cell patch clamp of striatal neurons from EAE mice: glutamate-mediated sEPSCs; type: in vivo; conditions: LQ-EAE mice 25 mg/kg, n=20; untreated-EAE 4.0±0.2, HC 2.7±0.2
# DAT-CI mice = assay: Mouse model of ADHD (DAT-CI mice); type: in vivo
# From the text: DAT cocaine-insensitive (DAT-CI) mice have a triple point-mutation in the cocaine-binding site of the dopamine […] (DAT) gene. The behavior of DAT-CI mice mimics human ADHD behavior. As previously described, the sensitivity of CB1 receptors controlling GABA-mediated synaptic currents in the striatum of DAT-CI mice was completely lost. ([…] et al., 2011).
# [4] = system: human subjects diagnosed with ADHD; assay: Human ADHD trial; type: in vivo; conditions: compared to the control group
# Procedure: Laquinimod is administered to human subjects diagnosed with ADHD.
# spinal cord of EAE mice = assay: Histological evaluation of spinal cord of EAE mice; type: in vivo, C57BL/6 mice
# Procedure: At least 5 mice per group were transcardially perfused through the left cardiac ventricle with saline, plus EDTA 0.5 M for 5-10 min followed by fixation with cold 4% paraformaldehyde (PFA) (Sigma, St Louis, Mo.) in 0.1 M phosphate buffer (pH 7.4). Subsequently, spinal cords and brains were carefully dissected out and post-fixed in 4% PFA for 3-4 h and processed for paraffin embedding. The quantification of neurological damage was performed on 5 µm paraffin CNS sections obtained from HC, LQ-EAE mice, and untreated-EAE mice. Three different staining were used to detect inflammatory infiltrates (H&E), demyelination (Luxol fast blue) and axonal damage (Bielshowsky). Imunohistochemistry for CD3 (pan-T cell marker, Serotec Ltd, Oxford, UK), and BS-I isolectin B4 (biotinilated from Sigma, St Louis, Mo.) was performed to investigate T cells and macrophages within the inflammatory cellular infiltrates, respectively. […] Neuropathological findings were quantified on an average of 18-20 complete cross-sections of spinal cord per mouse taken at 8 different levels of the spinal cord. The number of perivascular inflammatory infiltrates were calculated and expressed as the numbers of inflammatory infiltrates per mm^2, demyelinated areas and axonal loss were expressed as percentage of damaged area per mm2. The number of T cells and macrophages lining within the subarachnoid space or infiltrating the CNS parenchyma was calculated and expressed as the number of cells per mm2. An Olympus microscope for the acquisitions of pictures was used. Statistical analysis was performed using the unpaired Student's t-test.
# [5] = LQ 1 μM, 12 minutes, compared to pre-drug values, first mention
# [6] = LQ 1 μM bath application, control neurons
# [7] = LQ 1 μM, 12 minutes, control neurons, compared to pre-drug values, second mention
# [8] = LQ-EAE vs control, dose dependent
# cannabinoid CB1 receptor, sequence (P47746 whole entry): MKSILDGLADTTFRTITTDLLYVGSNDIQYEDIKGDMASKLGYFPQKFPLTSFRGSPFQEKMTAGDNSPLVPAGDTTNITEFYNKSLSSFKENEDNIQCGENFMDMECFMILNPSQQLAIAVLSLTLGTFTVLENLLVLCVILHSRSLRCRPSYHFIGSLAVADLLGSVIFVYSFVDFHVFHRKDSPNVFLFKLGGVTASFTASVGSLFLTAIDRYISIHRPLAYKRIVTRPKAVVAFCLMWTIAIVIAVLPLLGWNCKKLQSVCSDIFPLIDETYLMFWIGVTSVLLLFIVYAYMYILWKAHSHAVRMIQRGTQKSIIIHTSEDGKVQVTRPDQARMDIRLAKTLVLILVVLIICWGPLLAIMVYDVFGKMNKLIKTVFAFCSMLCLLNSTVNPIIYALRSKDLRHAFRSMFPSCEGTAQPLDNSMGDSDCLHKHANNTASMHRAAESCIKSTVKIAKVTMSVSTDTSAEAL
structure (smiles),measurement,setting,value
N#Cc1cc2[nH]c(=O)c(=O)[nH]c2cc1[N+](=O)[O-] [CNQX],blockade of sEPSCs,"[1]; recorded in the presence of LQ, n=5, CNQX 10 μM",fully blocked
CCCCCCC(C)(C)c1cc(O)c2c(c1)OC(C)(C)[C@@H]1CC=C(CO)C[C@@H]21 [HU210],"sIPSC frequency during HU210, respect to pre-drug values","cannabinoid CB1 receptor; control slices, 10 min, n=8",76±3%
same,"sIPSC frequency during HU210, respect to pre-drug values","cannabinoid CB1 receptor; striatal neurons from untreated EAE mice, n=10",101±3%
"CCN(C(=O)c1c(O)c2c(Cl)cccc2n(C)c1=O)c1ccccc1 [LQ, N-ethyl-N-phenyl-1,2-dihydro-4-hydroxy-5-chloro-1-methyl-2-oxoquinoline-3-carboxamide]",effect on EAE clinical course,EAE mice,significantly suppresses EAE in a dose-dependent manner
same,amplitude of sIPSCs,[2]; LQ 1 μM bath application,failed to alter
same,frequency of sIPSCs,[2]; LQ 1 μM bath application,failed to alter
same,sIPSC decay time,[2]; [5],98±3%
same,sIPSC rise time,[2]; [5],101±2%
same,result in rat model of ADHD,rat model of ADHD,positive results
same,frequency of sEPSCs,[3],3.4±0.4 Hz
same,amplitude of sEPSCs,[1]; [6],failed to alter
same,frequency of sEPSCs,[1]; [6],failed to alter
same,sIPSC decay time,[1]; [7],101±2%
same,sIPSC rise time,[1]; [7],99±1%
same,sEPSC amplitude,"[1]; LQ 10-30 μM bath application, control neurons, n=10",reducing sEPSC amplitude
same,"frequency of sEPSCs, respect to pre-drug values","[1]; highest concentration of LQ, n=7",83±2.7%
same,sensitivity of CB1 receptors to CB1 receptor agonist HU210,DAT-CI mice; DAT-CI mice,restored sensitivity
same,locomotor activity,DAT-CI mice; DAT-CI mice compared to control mice,decreased locomotor activity
same,result in human ADHD subjects,[4],"alleviation of inattention, hyperactivity or impulsivity"
same,Demyelination,spinal cord of EAE mice; [8],reduced
same,axonal loss,spinal cord of EAE mice; [8],reduced
same,number of T lymphocytes (CD3+) in cellular infiltrates,spinal cord of EAE mice; LQ-EAE vs untreated-EAE mice,diminished number
same,number of microglia/macrophages (Isolectin B4+) in cellular infiltrates,spinal cord of EAE mice; LQ-EAE vs untreated-EAE mice,diminished number
same,numbers of infiltrates within spinal cord sections,spinal cord of EAE mice; LQ-EAE vs untreated-EAE mice,reduction in numbers of infiltrates
same,"sIPSC frequency during HU210, respect to pre-drug values","cannabinoid CB1 receptor; striatal neurons from LQ-EAE mice (25 mg/kg), n=10",75±3%
